Experimental data published in paper PMC7125190, “Native/citrullinated LL37-specific T-cells help autoantibody production in Systemic Lupus Erythematosus” (Scientific Reports, 2020).

Assays:
[1] = system: SLE/CLE skin and kidney, HD skin; test: Immunohistochemistry and laser scanner confocal microscopy of tissues; design: species or system human; details: for presence in SLE and CLE target organs: IHC and LSM, skin (dermis) and kidney; for kidney biopsies with DNA filaments bound to LL37 and/or cit-LL37: lupus nephritis, four of seven biopsies
Procedure: Immunohistochemistry and laser scanner confocal microscopy (LSM)
We performed staining on […] paraffin or frozen sections of human lupus erythematosus skin specimens obtained from CHUV, Dept. of Dermatology. Staining with anti-cit-LL37 Mabs was performed using the antibodies Mab142 and Mab137 at 1:40 dilution, followed by incubation with a […] (Abcam). HRP and DAB (DAKO) were used to develop the color. Nuclear staining was performed with Mayer’s haematoxylin. […]
Frozen or paraffin-included SLE renal biopsies, obtained from Policlinico Umberto I, Rome, IT or CHUV Lausanne, CH, were stained, after saturation with blocking buffer (PBS, 0.05% tween 20, 4% BSA) for 1 hour at room temperature. Bopsies in paraffin were stained after de-paraffination in xilene (5 minutes, two times), followed by passages in: absolute ethanol (3 minutes), 95% ethanol in water (3 minutes), 80% ethanol in water (3 minutes), 70% ethanol in water (3 minutes), and antigen retrieval (5 minutes at […]
95°C in 10 mM sodium citrate, pH 6.0). Antibodies (Mab142 or Mab137) were added at 1:50 dilution (all diluited in blocking buffer) (isotype control was added at 1:100 concentration) for 1 hour at room temperature in a humidified chamber. Anti-C9 (Atlas antibodies, Sweden) was added at 1:50 dilution (all antibody dilutions were in blocking buffer). Slides were washed three times for 3 minutes under agitation with PBS 0.1% tween 20 and incubated with donkey anti-mouse or anti-rabbit secondary antibody or mouse anti-goat antibody, conjugated with AlexaFluor 647, Alexa Fluor 568 or 594 or AlexaFluor 488, depending on the combinations of markers analyzed (in humidified chamber). Slides were washed again, and mounted in Prolong Gold anti-fade media containing a DNA dye (DAPI) (Molecular Probes), before analysis with a confocal microscope, objectives 20x, or 40x and 60x in oil immersion. Images were taken by a FV1000 confocal microscope (Olympus, Tokyo, Japan), using a Olympus planapo objective 40x or 60x oil A.N. 1,42.
Excitation light was obtained by a Laser Dapi 408 nm for DAPI, an Argon Ion Laser (488 nm) for FITC (Alexa 488), a Diode Laser HeNe (561 nm) for Alexa 568, and a Red Diode Laser (638 nm) for Alexa 647. DAPI emission was recorded from 415 to 485 nm, FITC emission was recorded […]
For quantification of LL37 and cit-LL37 in renal/skin biopsies, we counted the specific staining spots in at least 3 sections from each patient, by using the ImageJ64 software. For comparison we also counted the staining in HD skin, as background staining. To estimate the percent of co-localization between IgG and LL37 staining we measured, in three sections for each patient, the total IgG or LL37 staining in single color images and than on merge images we assessed the spots that indicates the co-localization IgG/LL37.
Reactivity of mouse anti-LL37 monoclonal antibodies (Mab137 and Mab142) Biotinylated native LL37, cit-SCR LL37, SCR LL37, cit-LL37, and the other citrullinated and non-citrullinated control antigenic peptides (also biotinylated) were diluted at 2-to-5 µg/mL and added to the wells over night at 4°C. Excess unbound peptides were washed away with wash buffer (PBS

[2] = system: CD4 T-cells; test: Peptide-MHC-tetramer staining of PBMC after seven-day culture; format: cell-based, human; details: for peptide-MHC-tetramer staining in HLA-matched HD: HLA-matched HD PBMCs; for peptide-MHC-tetramer staining at remission: SLE2, SLE22 and CLE6 PBMCs at remission
Procedure: Peptide-MHC-tetramer staining of T-cell lines/clones and blood T-cells
Peptide-MHC-tetramers (Table S4) were from ProImmune, (UK), TC Metrix, (CH), Benaroya,
(USA) and ImmunAware (Denmark). Staining was performed for 40 minutes at 37°C, followed by
staining for CD4 (4°C, 20 minutes). Before flow cytometry-acquisition, cells were labelled with
PercP-conjugated 7-AAD to exclude dead cells. […]

[3] = system: CD4 T-cells in PBMC cultures; test: TFH/Th17 marker expression by flow cytometry (CXCR5, Bcl-6, Ror-γt); format: cell-based, human; details: for Bcl-6 expression / Ror-ɣt expression: CD38hi T-cells, 48 hours; for Bcl-6 expression: SLE but not psoriasis; for Ror-ɣt expression: both SLE and psoriasis; for CXCR5 expression by proliferating T-cells: SLE (but not in psoriasis)
Procedure: PBMCs were purified, from EDTA-treated blood, on Ficoll-Hypaque (Pharmacia Fine Chemicals, Uppsala, Sweden) were incubated (10^5 cells/well) in 96-well-flat-bottom-microplates (BD) in T cell-medium (RPMI 1640, 10% heat-inactivated human serum, HS, Gibco), 2 mM L-glutamine, 10 U/mL penicillin, and 100 μg/mL streptomycin), with/without peptides. We performed assays on fresh cells, within 1-to-3 hours from collection, or on PBMCs frozen in 90% FCS-10%DMSO, whose viability we assessed by Trypan blue exclusion, at inverted microscope. Recovery of live cells was between 65 and 85 % of the frozen number. At day3 and 5, BrdU was added (1 μg/mL). BrdU-incorporation was detected by APC-labeled anti-BrdU antibody (BD Pharmingen), after surface staining by flow cytometry. Internal control for T-cell viability and proliferation was PHA treatment (2 μg/mL). SI for proliferation was calculated by dividing percent of BrdU-staining in the presence of each peptide used to stimulate cells by percent of BrdU-staining in the absence of peptide stimulation. SI for proliferation was considered positive when>3. This cut-off was obtained by calculating the mean+2DS [1.5 + 2 (0.6)] (of the stimulation indexes calculated as above) of the proliferation of HD.
Basal % of proliferation was set using, as reference, an isotype matched antibody staining (APC-isotype control and) and never exceed 5% of cell proliferation value (background proliferation).
Assays were repeated twice with each patient. In rare cases in which background proliferation exceed antigen-specific proliferation the assay was repeated three times. Concomitant phenotype analysis of LL37-responder T-cells included staining for CD4, CD8, CXCR5, PD1, ICOS, CCR6. Ror-ɣt and Bcl-6 were measured by intracellular staining and flow cytometry, after 48 hours culture with LL37 or control antigen, and were analyzed on CD38highCD4 T-cells. […]

Substance	presence in SLE and CLE target organs [1]	expression in HD skin ([1]; healthy donor skin)	kidney biopsies with DNA filaments bound to LL37 and/or cit-LL37 [1] [%]	peptide-MHC-tetramer staining in HLA-matched HD ([2]; seven-day culture)	peptide-MHC-tetramer staining at remission [2]	Bcl-6 expression [3]	Ror-ɣt expression [3]	CXCR5 expression by proliferating T-cells [3]	frequency of peptide-MHC-tetramer positive T-cells, cit-LL37 versus native-LL37 ([2]; three patients (SLE2, SLE22, CLE6), seven-day culture)
LLGDFFRKSKEKIGKEFKRIVQRIKDFLRNLVPRTES [LL37, native LL37, antimicrobial peptide, 37 aa]	detected	did not express significant amounts	57	did not stain significantly	not staining for native-LL37	could up-regulate Bcl-6	could upregulate Ror-ɣt expression	significant up-regulation	
LLGDFFR(cit)KSKEKIGKEFKR(cit)IVQR(cit)IKDFLR(cit)NLVPR(cit)TES [cit-LL37, citrullinated LL37 (citrullinated at all five arginin positions)]	detected		57	did not stain significantly	still observed some staining upon stimulation with cit-LL37	could up-regulate Bcl-6	could upregulate Ror-ɣt expression	significant up-regulation	higher upon culture of PBMCs with cit-LL37 compared to native-LL37
